Where two headings read alike, the source gives them in different places.
Assays:
[1] = Absorbance maximum and extinction coefficient; assay type: physicochemical; conditions: for ε (extinction coefficient): pH 7.2, at 480 nm
Procedure: First, the extinction coefficient of compounds 1-9 and 14 was determined. Stock solutions (5×10^-3 M) of each dye were made by dissolving the dye in two equivalents of 0.1 N NaOH and making up the volume with carbonate/bicarbonate buffer (0.16, 0.34 M, pH 9.5). The solution was diluted ([…]) in additional buffer (final pH 9.5-10) and the absorbance spectrum measured. A stock solution (1.2×10^-3 M) of Vita Blue was prepared in DMSO, diluted into citrate buffer (0.1 M, pH 5 2) to give a final concentration of 1.6×10^-5 M and the absorbance spectrum measured. A stock solution (8.2×10^-3 M) of VBDB was prepared in DMSO and diluted into pyrophosphate buffer (0.1 M, pH 7.2) to give a final concentration of 8.1×10^-5 M and the absorbance spectrum measured on a Beckman model DU-6UV visible spectrophotometer.
(§1) Finally, the spectral characteristics of compounds 1-9 was determined. The extinction coefficients and quantum yields or compounds 1-9 were determined at pH 9.5. The extinction coefficient and quantum yield of monoprotonated Vita Blue was also determined at pH 5.2. The extinction coefficient and the quantum yield of VBDB were determined at pH 7.2.

[2] = Fluorescence emission maximum and quantum yield; assay type: physicochemical
Procedure: Second, quantum yields of compounds 1-9 and 14 were measured. Solutions (1×10^-6 M) of compounds 1-9 were prepared in carbonate/ bicarbonate buffer (pH 9.5). Fluorescence emission spectra were measured on a Perkin-Elmer MPF-2A fluorescence spectrophotometer in 3-mL disposable plastic cuvettes. The excitation wavelength was set 30 nm to the red of the maximum excitation wavelength and the emission spectra measured. The area under the emission spectrum was measured (F). The quantum yield (.PHI.) was determined using the following equation, F-kIo .PHI.εcb, where F is the fluorescence, k is a fluorimeter constant, Io is the light intensity at the exciting wavelength, ε is the extinction coefficient at the exciting wavelength, c is the concentration of the dye, and b is the pathlength of the cuvette. The value of k was determined for three different emission wavelength regions by using literature values of .PHI. and measuring the fluorescence of fluorescein (470-670 nm, .PHI.=0.92), eosin (500-700 nm, .PHI.=0.19) and allophycocyanin (Applied BioSystems, 600-800 nm, .PHI.=0.68). The value of Io was determined from a table that was generated by scanning the range of exciting wavelengths on the fluorescence spectrophotometer with the emission monochrometer open; a piece of white paper was placed in the sample holder to reflect the exciting light. The concentration of the dyes were 0.6-1.0 uM; this value in each case was below the concentration ([…]) required in order for the equation to be valid.
as §1

[3] = target: T1, pig liver esterase (E.C. 3.1.1.1) (Sus scrofa, UniProt Q29550); assay: Enzymatic hydrolysis by esterase (Km, Lineweaver-Burk); assay type: biochemical
T1 sequence (Q29550 19-566): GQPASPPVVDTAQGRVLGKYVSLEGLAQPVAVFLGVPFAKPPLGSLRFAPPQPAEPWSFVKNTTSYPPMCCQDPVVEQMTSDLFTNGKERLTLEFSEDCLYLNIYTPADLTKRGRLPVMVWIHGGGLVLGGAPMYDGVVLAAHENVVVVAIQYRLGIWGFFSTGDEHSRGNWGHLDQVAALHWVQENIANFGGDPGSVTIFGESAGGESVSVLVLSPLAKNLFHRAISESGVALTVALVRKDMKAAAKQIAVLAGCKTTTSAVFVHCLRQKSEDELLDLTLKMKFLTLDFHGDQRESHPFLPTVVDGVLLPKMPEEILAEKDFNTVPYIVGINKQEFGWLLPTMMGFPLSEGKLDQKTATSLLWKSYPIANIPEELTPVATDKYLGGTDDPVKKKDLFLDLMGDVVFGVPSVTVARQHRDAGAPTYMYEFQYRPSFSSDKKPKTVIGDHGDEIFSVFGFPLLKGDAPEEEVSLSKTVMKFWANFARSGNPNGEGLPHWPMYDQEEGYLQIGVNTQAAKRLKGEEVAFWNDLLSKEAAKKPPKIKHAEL

[4] = Staining of lysed whole blood, fluorescence by flow cytometry; assay type: cell-based, human; conditions: human, white blood cells
Procedure: (§2) After characterizing the various xanthene dyes prepared in accordance with this invention, one of the dyes (VBDB) was used to stain cells. The ability of VBDB to stain cells was compared with BCECF-AM, a membrane permeable esterase substrate (Molecular Probes) and fluorescein diacetate (FDA). […] After incubation, the tube was centrifuged. This procedure specifically lyses red blood cells leaving the white cells intact and viable. The supernatant was removed and the white blood cells which remained were washed twice and resuspended in blood cell diluent (1 mL, Diagnostic Technology, Inc.). The cell concentration and the percentage of dead cells were ascertained by counting the cells manually using a fluorescent microscope and a hemacytometer; acridine orange and ethidium bromide were used to stain live and dead cells respectively.
(§3) Four samples of approximately 1.7×10^6 cells then were placed in polystyrene tubes. To each tube was added one of the following solutions (1 mL): FDA (1 uM) BCECF-AM (1 uM), VBDB (0.8 uM), or VBDB (8.0 uM). The dye solutions were prepared by diluting a stock solution of each dye (1-8 mM in DMSO) into blood cell diluent. The tubes were kept at room temperature for 30 minutes. The samples were washed three times and resuspended in blood cell diluent (1 mL).
(§4) A bandpass 530/30 emission filter was used for both FDA and BCECF-AM, while a bandpass 660/20 emission filter was used for VBDB. Data from 10,000 events were acquired from each of these samples immediately after staining, one hour after staining, and two hours after staining.
(§5) Referring to FIG. 2, VBDB, BCECF-AM and FDA were compared as vital dyes by staining lysed whole blood and examining the fluorescence by flow cytometry. […] Four samples of cells were incubated with BCECF AM (1 uM), FDA (1 uM) and VBDB (0.8 uM, 8.0 uM). The cells were analyzed immediately after staining (t=0), after one hour (t=1) and after two hours (t=2).
(§6) The data in FIG. 2 also was used to quantitate the "live" cells and the "dead" cells. […] It was assumed the live cells were those cells which retained the dye (the right peak) and that dead cells were those cells whose membranes had become leaky (the left peak). By setting the gate to the immediate left of the main peak, the "dead" cells to the left of the gate were counted.

human white blood cells = assay: as above; assay type: cell-based
Procedure: as §2, §3, §4, §5, §6

Stability in water = conditions: pH 7
[5] = Membrane permeability of diacetates; conditions: diacetate esters
[6] = pH 7
[7] = not told

Compound: CCCC(=O)Oc1ccc2c3c(ccc2c1)C1(OS(=O)(=O)c2ccccc21)c1ccc2cc(OC(=O)CCC)ccc2c1O3 [Compound 14, Vita Blue dibutyrate]
- Abs Max ([1]; pH 7.2): 480 nm
- ε (extinction coefficient) [1]: 5900 M⁻¹ cm⁻¹
- ε (extinction coefficient) ([1]; listed as dibutyrate derivative of compound 9): 5900 M⁻¹ cm⁻¹
- excitation maximum [2]: 480 nm
- EM Max ([2]; pH 7.2): 552 nm
- Quantum Yield ([2]; pH 7.2): 0.03
- EM Max ([2]; pH 7.2, listed as dibutyrate derivative of compound 9): 550 nm
- esterase substrate [3]: good substrate
- specific activity ([3]; pH 8.0): 2.5 (ug substrate) (min)^-1 (mg enzyme)^-1
- percentage of dead (leaky) cells at 0 h, 0.8 µM ([4]; 0.8 uM, t=0): 14%
- percentage of dead (leaky) cells at 1 h, 0.8 µM ([4]; 0.8 uM, t=1 h): 18%
- percentage of dead (leaky) cells at 2 h, 0.8 µM ([4]; 0.8 uM, t=2 h): 20%
- percentage of dead (leaky) cells at 8 µM ([4]; 8 uM, second value, printed t=2): 17%
- percentage of dead (leaky) cells at 0 h, 8 µM ([4]; 8 uM, t=0): 12%
- percentage of dead (leaky) cells at 2 h, 8 µM ([4]; 8 uM, t=2 h): 22%
- retention of initial fluorescence by stained cells over time (human white blood cells; 0.8 uM dye): maintained their initial fluorescence
- coefficient of variation (CV) in the fluorescence histogram (human white blood cells; 0.8 uM, t=0): 39%
- coefficient of variation (CV) in the fluorescence histogram (human white blood cells; 0.8 uM, t=1 h): 43%
- coefficient of variation (CV) in the fluorescence histogram (human white blood cells; 0.8 uM, t=2 h): 46%
- retention of initial fluorescence by stained cells over time (human white blood cells; 8 uM dye, after one hour): actually increased their fluorescence slightly after one hour
- coefficient of variation (CV) in the fluorescence histogram (human white blood cells; 8 uM, t=0): 30%
- coefficient of variation (CV) in the fluorescence histogram (human white blood cells; 8 uM, t=1 h): 35%
- coefficient of variation (CV) in the fluorescence histogram (human white blood cells; 8 uM, t=2 h): 34%
- number of leaky cells, comparison of BCECF and VBDB (human white blood cells; after two hours, higher VBDB concentration): the same number of "leaky" cells after two hours
- deleterious effect on cells (human white blood cells; higher concentration (8 uM)): did not seem to be deleterious to the cells
- stability in water (Stability in water): relatively stable in water at pH 7

Compound: CC(=O)Oc1ccc2c3c(ccc2c1)C1(OS(=O)(=O)c2ccccc21)c1ccc2cc(OC(C)=O)ccc2c1O3 [Diacetate ester of compound 9, Vita Blue diacetate]
- esterase substrate [3]: esterase substrates
- membrane permeability [5]: neither diacetates were membrane permeable

Compound: Sulfonefluorescein diacetate [Diacetate ester of compound 2]
- esterase substrate [3]: esterase substrates
- stability in water [6]: relatively stable in water at pH 7
- membrane permeability [7]: neither diacetates were membrane permeable
